# Measurements: patent US5721238A, “2,8-disubstituted quinazolinones” (Bayer Aktiengesellschaft, priority 1995, dated 1998)
# What was measured:
# Format in all cases: biochemical
# PDE V = assay: Inhibition of the phosphodiesterases in vitro: PDE V (cGMP-specific); settings: cGMP-specific PDE V from porcine intestine, porcine aorta and/or human blood platelets; nucleotide 10^-6 mol/l; pH 7.5; 30 minutes
# Experimental: (§1) The cGMP-stimulatable PDE II, the cGMP-inhibitable PDE III and the cAMP-specific PDE IV were isolated from either porcine or bovine myocardia. The Ca-calmodulin-stimulatable PDE I was isolated from the porcine aorta or porcine brain. The cGMP-specific PDE V was obtained from the porcine intestine, porcine aorta and/or human blood platelets. Purification was carried out by anion exchange chromatography on MonoQ^R Pharmacia, essentially by the method of M. Hoey and Miles D. Houslay, Biochemical Pharmacology, Volume 40, 193-202 (1990).
# (§2) The enzyme activity is determined in a test batch of 100 μl in 20 mM Tris/HCl buffer of pH 7.5 which contains 5 mM MgCl2, 0.1 mg/ml of bovine serum albumin and either 800 Bq of ^3 HcAMP or ^3 HcGMP. The final concentration of the corresponding nucleotide is 10^-6 mol/l. The reaction is started by addition of the enzyme and the amount of enzyme is chosen such that about 50% of the substrate is converted during the incubation time of 30 minutes. To test the cGMP-stimulatable PDE II, ^3 HcAMP is used as the substrate and 10^-6 mol/l of non-labelled cGMP is added to the batch. To test the Ca-calmodulin-dependent PDE I, 1 μM CaCl2 and 0.1 μM calmodulin are also added to the reaction batch. The reaction is stopped by addition of 100 μl of acetonitrile which contains 1 mM cAMP and 1 mM AMP. 100 μl of the reaction batch are separated on the HPLC and the cleavage products are determined quantitatively "online" using a flow-through scintillation counter. The substance concentration at which the rate of reaction is reduced by 50% is measured.
# PDE I = assay: Inhibition of the phosphodiesterases in vitro: PDE I (Ca-calmodulin-stimulatable); settings: Ca-calmodulin-stimulatable PDE I from porcine aorta or porcine brain; nucleotide 10^-6 mol/l; 1 μM CaCl2, 0.1 μM calmodulin; pH 7.5; 30 minutes
# Experimental: as §1, §2
# PDE II = assay: Inhibition of the phosphodiesterases in vitro: PDE II (cGMP-stimulatable); settings: cGMP-stimulatable PDE II from porcine or bovine myocardia; 3HcAMP substrate 10^-6 mol/l, 10^-6 mol/l non-labelled cGMP; pH 7.5; 30 minutes
# Experimental: as §1, §2
Compound,IC50 (PDE V),IC50 (PDE I),IC50 (PDE II)
"CCCCCC(O)C(OC)c1cccc2c(=O)[nH]c(-c3ccccc3OCCC)nc12 (stereo not drawn) [Example 14, 2-(2-n-Propoxyphenyl)-8-(1-methoxy-2-hydroxy-1-heptyl)-quinazolin-4(3H)-one]",3 µM,5 µM,5 µM
"CCCOc1ccccc1-c1nc2c(C(OC)C(O)Cc3ccccc3)cccc2c(=O)[nH]1 (stereo not drawn) [Example 15, 2-(2-n-Propoxyphenyl)-8-(3-phenyl-1-methoxy-2-hydroxy-1-propyl)-quinazolin-4(3H)-one]",–,3 µM,5 µM
"CCCOc1ccccc1-c1nc2c(C(OC)C(O)CCc3ccccc3)cccc2c(=O)[nH]1 (stereo not drawn) [Example 16, 2-(2-n-Propoxyphenyl)-8-(4-phenyl-1-methoxy-2-hydroxy-1-butyl)-quinazolin-4(3H)-one]",5 µM,–,5 µM
"CCCCCC(O)C(CC)c1cccc2c(=O)[nH]c(-c3ccccc3OCCC)nc12 (stereo not drawn) [Example 20, 2-(2-n-Propoxyphenyl)-8-(4-hydroxy-3-nonyl)-quinazolin-4(3H)-one]",5 µM,10 µM,2 µM
"CCCOc1ccc(S(=O)(=O)N2CCOCC2)cc1-c1nc2c(C(C)CCCc3ccccc3)cccc2c(=O)[nH]1 (stereo not drawn) [Example 29, 2-(2-n-Propoxy-5-morpholinosulphonylphenyl)-8-(5-phenyl-2-pentyl)-quinazolin-4-(3H)-one]",1 µM,–,0.5 µM
